≈ marks a conversion by molar mass, not a printed value. Read-outs that look alike come from different tables or passages of the source.
Experiments:
[1] = Effect of pH on Compound 1 saline formulation; assay type: physicochemical; conditions: 5 mg/mL in 0.9% saline
enteric organisms = assay: In vitro antibacterial activity, agar dilution; assay type: cell-based; conditions: clinical isolates
Method: (§1) Various bacterial species, such as Gram positive bacteria (e.g., Clostridium, Staphylococcus and Streptococcus), Gram negative bacteria (e.g., Moraxella, Haemophilus, Pseudomonas, Proteus, and Bacteriodes), anaerobic and atypical pathogens, were isolated from clinical samples. The antibacterial activity of Compound of Formula I against these bacterial species were determined using agar dilution assays described in the U.S. National Committee for Clinical Laboratory, M7-A6, 2003, and M11-A5, 2001.

S. pneumoniae = assay: In vitro antibacterial activity, agar dilution; assay type: cell-based
Method: as §1

Clostridium difficile = assay: In vitro antibacterial activity, agar dilution; assay type: cell-based; conditions: anaerobic pathogen, clinical isolates
Method: as §1

Pseudomonas aeruginosa = assay: In vitro antibacterial activity, agar dilution; assay type: cell-based; conditions: clinical isolates
Method: as §1

[2] = tested on: Gram positive, Gram negative, anaerobic, and atypical pathogens; assay: In vitro antibacterial activity, agar dilution; assay type: cell-based; conditions: clinical isolates
Method: as §1

Proteus mirabilis = assay: In vitro antibacterial activity, agar dilution; assay type: cell-based; conditions: clinical isolates
Method: as §1

[3] = tested on: methicillin-susceptible S. aureus (MSSA); assay: In vitro antibacterial activity, agar dilution; assay type: cell-based
Method: as §1

Neisseria gonorrhoeae = assay: In vitro antibacterial activity, agar dilution; assay type: cell-based; conditions: clinical isolates
Method: as §1

Klebsiella pneumoniae = assay: In vitro antibacterial activity, agar dilution; assay type: cell-based; conditions: clinical isolates
Method: as §1

Haemophilus influenzae = assay: In vitro antibacterial activity, agar dilution; assay type: cell-based; conditions: clinical isolates
Method: as §1

Moraxella catarrhalis = assay: In vitro antibacterial activity, agar dilution; assay type: cell-based; conditions: clinical isolates
Method: as §1

Bacteroides species = assay: In vitro antibacterial activity, agar dilution; assay type: cell-based; conditions: anaerobic pathogens, clinical isolates
Method: as §1

E. coli = assay: In vitro antibacterial activity, agar dilution; assay type: cell-based; conditions: clinical isolates
Method: as §1

[4] = Effect of temperature and time during sterilization on Compound 1 saline formulation; assay type: physicochemical; conditions: 0.9% saline
Method: To the solution was added 1.5 g of activated charcoal (0.05% g/mL). The mixture was stirred for 15 min and filtered. The filtrate was added to a serious of 100-mL polypropylene bottles. The filled bottles were capped, sealed, and divided into four groups (7 bottles/group).

[5] = Long-term and accelerated storage stability of Compound 1 saline formulation; assay type: physicochemical; conditions: 5 mg/mL (free base) in 0.9% saline
Method: At each sampling point (marked as “X” in the above table), samples were evaluated for their appearance, color, clarity, pH, UV absorption, assay and impurity.

[6] = Effect of iron content on Compound 1 saline formulation; assay type: physicochemical; conditions: 5 mg/mL in 0.9% saline, filtered, sterilized
Method: The solution was equally divided into 2 portions. To one portion was added 0.25 g activated charcoal and to the other was added 0.25 g activated charcoal and 0.1 g of iron powder. Each of the resulting mixture was stirred and filtered to a 100-mL polypropylene bottle.

MRSA = assay: In vitro antibacterial activity, agar dilution; assay type: cell-based, S. aureus
Method: as §1

staphylococci = assay: In vitro antibacterial activity, agar dilution; assay type: cell-based, Staphylococcus
Method: as §1

[7] = Effect of lower temperature (−15° C.) on Compound 1 saline formulation; assay type: physicochemical; conditions: 5 mg/mL in 0.9% saline
S. pneumoniae Stp 6301 = assay: In vivo antibacterial efficacy, mouse pulmonary infection model
Method: The in vivo antibacterial efficacy of Compound 1 was evaluated in a mouse model. Mice were anesthetized and infected intranasally with a lethal amount of S. pneumoniae Stp 6301. Twelve, eighteen, and twenty-four hours after the infection, a composition containing Compound 1 or moxifloxacin (as a positive control), 0.7% lactic acid, and 3% dextrose was administered subcutaneously to the mice at a total dose of 50, 25, 12.5, or 6.25 mg/kg. Half of the treated mice were euthanized four hours after the last treatment of Compound 1 or moxifloxacin and their blood and lung tissues were collected. The number of viable bacteria in the blood and lung tissues was then determined. The lung tissues were also subjected to histopathologic evaluation. The other half of the mice were monitored for 6 days and the number of the surviving mice was recorded.

[8] = 5 mg/mL in 5% dextrose
Method: The solution was filtered and transferred to in 100-mL polypropylene bottles. The bottles were capped, sealed, sterilized at 110° C. for 35 min, and stored at 60° C. oven. The solution in the bottles was analyzed on days 0, 5, and 10.

[9] = sterile temperature N/A (control group)
[10] = activated charcoal and iron powder added
[11] = activated charcoal, no iron powder
[12] = 0 day, after sterilization (110° C., 35 min)

## COc1c(N2C[C@@H](C)C[C@H](N)C2)ccc2c(=O)c(C(=O)O)cn(C3CC3)c12 [Compound 1, (3S,5S)-7-[3-amino-5-methyl-piperidinyl]-1-cyclopropyl-1,4-dihydro-8-methoxy-4-oxo-3-quinolinecarboxylic acid]
[1]; pH 2.17
  Appearance: clear yellow solution
  Comparative content of Compound 1 (%): 96.68%
[1]; pH 4.50
  Appearance: clear yellow solution
  Comparative content of Compound 1 (%): 101.14%
[1]; pH 6.60
  Appearance: White precipitate
Enteric organisms
  antibacterial activity (in words): active against most enteric organisms
S. pneumoniae; macrolide-resistant S. pneumoniae isolates
  MIC90: 0.12 µg/mL (≈ 0.323 µM)
S. pneumoniae; penicillin-resistant S. pneumoniae isolates
  MIC90: 0.12 µg/mL (≈ 0.323 µM)
S. pneumoniae; susceptible S. pneumoniae isolates
  MIC90: 0.12 µg/mL (≈ 0.323 µM)
Clostridium difficile
  antibacterial activity (in words): active
Pseudomonas aeruginosa
  antibacterial activity (in words): active against many isolates
[2]
  antibacterial activity (in words): potent, broad-spectrum antibacterial activity
Proteus mirabilis
  MIC90: 0.5 µg/mL (≈ 1.35 µM)
[3]; ciprofloxacin-resistant MSSA clinical isolates
  MIC90: 0.5 µg/mL (≈ 1.35 µM)
[3]; ciprofloxacin-sensitive MSSA clinical isolates
  MIC90: 0.06 µg/mL (≈ 0.162 µM)
Neisseria gonorrhoeae
  MIC90: 0.06 µg/mL (≈ 0.162 µM)
Klebsiella pneumoniae
  MIC90: 1 µg/mL (≈ 2.69 µM)
Haemophilus influenzae
  MIC90: 0.12 µg/mL (≈ 0.323 µM)
Moraxella catarrhalis
  MIC90: 0.03 µg/mL (≈ 0.0808 µM)
Bacteroides species
  antibacterial activity (in words): active
E. coli
  MIC90: 0.12 µg/mL (≈ 0.323 µM)
[4]; [9]
  Content (%): 95.20%
  Total Impurity (%): 0.167%
  pH Value: 3.86
[4]; sterilization 105° C./35 min
  Content (%): 96.44%
  Total Impurity (%): 0.198%
  pH Value: 3.86
[4]; sterilization 110° C./35 min
  Content (%): 95.86%
  Total Impurity (%): 0.240%
  pH Value: 3.86
[4]; sterilization 115° C./35 min
  Content (%): 95.98%
  Total Impurity (%): 0.509%
  pH Value: 3.85
[5]; 25° C., 60% RH, 12 months
  Changes in appearance, color, clarity, pH, UV absorption, assay and impurity: No significant changes
[5]; 40° C., 20% RH, 6 months
  Changes in appearance, color, clarity, pH, UV absorption, assay and impurity: No significant changes
[6]; [10]
  Appearance: Reddish Brown
  pH: 3.77
[6]; [11]
  Appearance: Light yellow
  pH: 3.78
MRSA; ciprofloxacin-resistant MRSA clinical isolates
  MIC90: 1 µg/mL (≈ 2.69 µM)
MRSA; ciprofloxacin-sensitive MRSA clinical isolates
  MIC90: 0.06 µg/mL (≈ 0.162 µM)
staphylococci; all staphylococci in this study
  MIC values: < 2 µg/mL
staphylococci; including methicillin-resistant S. aureus (MRSA)
  antibacterial activity (in words): especially active
[7]; 0 day at −15° C.
  Appearance: Clear yellow
  Content: 102.6
  Total Impurity (%): 0.378%
  pH Value: 3.90
[7]; 5 days at −15° C.
  Appearance: Clear yellow
  Content: 102.8
  Total Impurity (%): 0.370%
  pH Value: 3.89
[7]; 10 days at −15° C.
  Appearance: Clear yellow
  Content: 103.5
  Total Impurity (%): 0.373%
  pH Value: 3.89
[7]; −15° C. for 10 days
  Appearance, compound content, pH and total impurity (summary in words): maintained the same
S. pneumoniae Stp 6301; lethal intranasal infection, s.c. total dose 50, 25, 12.5 or 6.25 mg/kg (all tested levels), monitored 6 days
  survival: 100%
S. pneumoniae Stp 6301; mice infected intranasally, s.c. 12, 18, 24 h after infection, total dose 50, 25, 12.5 or 6.25 mg/kg (all levels), 4 h after last treatment, vs vehicle-treated controls
  viable bacteria in lung and blood: significantly reduced
S. pneumoniae Stp 6301; same dosage levels, pulmonary infection model
  efficacy compared with moxifloxacin: more efficacious than moxifloxacin
[8]; [12]
  Appearance: Clear yellow
  Comparative content of Compound 1 (%): 97.8%
  pH: 3.88
[8]; 0 day, before sterilization
  Appearance: Clear yellow
  Comparative content of Compound 1 (%): 100.4%
  pH: 3.89
[8]; 5 days at 60° C.
  Appearance: Dark yellow
  Comparative content of Compound 1 (%): 96.0%
  pH: 4.03
[8]; 10 days at 60° C.
  Appearance: Brown
  Comparative content of Compound 1 (%): 94.2%
  pH: 4.08
